The source of these data is ChEMBL document CHEMBL5442663, “ASAP - Solubility” (2024).

Converted amounts (≈) assume the structure as drawn. “And” between values parts separate entries of the source, which are not always exact repeats. Equal values may be shown once.

The nature of this data set: Kinetic solubility of compound by measuring concentration at pH 7.4 in saturated PBS buffer by UV LCMS/MS using calibration curves. The assay has been performed by Enamine biological services, Bienta Ltd.The protocol is publicly available: dx.doi.org/10.17504/protocols.io.j8nlk8y41l5r/v1. The class given is physicochemical. The settings on record: for solubility kinetic: PBS buffer; for Solubility (mean): buffer.

With `CC(C)[C@@H](Nc1ncnc2[nH]ccc12)c1ccc2c(c1)S(=O)(=O)CCC2`, the kinetic solubility was 385 µM (≈ 143 µg/mL) and the “Solubility (mean)” value worked out at 386 µM (≈ 143 µg/mL). Compound `CCNC(=O)c1cc2c(N[C@@H](c3ccc4c(c3)S(=O)(=O)CCO4)C(C)C)ncnc2[nH]1` yielded a solubility (kinetic) of 328 µM (≈ 145 µg/mL). The same measure, in the same setting: for `Cc1nn(C)cc1-c1cc2c(N[C@@H](c3ccc4c(c3)S(=O)(=O)CCC4)C(C)C)ncnc2[nH]1` the value was 63 µM (≈ 29.3 µg/mL). `CCNC(=O)c1cc2c(N[C@@H](c3ccc4c(c3)S(=O)(=O)CCC4)C(C)C)ncnc2[nH]1`: the solubility (kinetic) came out at 336 µM (≈ 148 µg/mL) and the “Solubility (mean)” value worked out at 316 µM (≈ 140 µg/mL). Taken in the same sequence, the figures for `Cn1ncc(-c2cc3c(N[C@@H](c4ccc5c(n4)OCCO5)C(C)(C)C)ncnc3[nH]2)c1C#N` were 25 µM (≈ 11.1 µg/mL) and 24 µM (≈ 10.7 µg/mL).

As for `CNC(=O)c1cc2c(N[C@@H](c3ccc4c(c3)OCCO4)C(C)C)ncnc2[nH]1`, the solubility (kinetic) was found to be 380 µM (≈ 145 µg/mL). Compound `CC(C)[C@H](Nc1ncnc2[nH]c(-c3cnn(CC(N)=O)c3)cc12)c1ccc2c(c1)S(=O)(=O)CCC2` returned a solubility (kinetic) of 338 µM (≈ 167 µg/mL). Still for that read-out and setting: for `Cc1nn(C)cc1-c1cc2c(N[C@H](c3ccc4c(c3)S(=O)(=O)CCC4)C(C)C)ncnc2[nH]1` the value was 65 µM (≈ 30.2 µg/mL). Regarding `CC(C)[C@@H](Nc1ncnc2[nH]c(C(=O)N[C@@H]3CCN(C)C3)cc12)c1ccc2c(c1)S(=O)(=O)CCC2`, the kinetic solubility stood at 392 µM (≈ 195 µg/mL). For the compound `CC(C)[C@@H](Nc1ncnc2[nH]c(-c3cnn(C)c3)cc12)c1ccc2c(c1)S(=O)(=O)NCC2`, the kinetic solubility turned out to be 105 µM (≈ 47.4 µg/mL).

As to `CC(C)[C@H](Nc1ncnc2[nH]c(-c3cnn(C)c3C#N)cc12)c1ccc2c(c1)S(=O)(=O)CCC2`, the kinetic solubility amounted to 22 µM (≈ 10.5 µg/mL). Take `CNCc1cc(-c2cc3c(N[C@@H](c4ccc5c(c4)S(=O)(=O)CCC5)C(C)C)ncnc3[nH]2)co1`: the kinetic solubility is 321 µM (≈ 154 µg/mL) and the “Solubility (mean)” value stood at 345 µM (≈ 165 µg/mL). In turn, `CNCc1cc(-c2cc3c(N[C@H](c4ccc5c(c4)S(=O)(=O)CCC5)C(C)C)ncnc3[nH]2)co1` showed a kinetic solubility of 358 µM (≈ 172 µg/mL).

Turning to `CC(C)[C@H](Nc1ncnc2[nH]c(-c3cnn(C)c3C#N)cc12)c1ccc2c(n1)NC(=O)CO2`, the solubility (kinetic) was 28 µM (≈ 12.4 µg/mL).

`CNCc1cc(-c2cc3c(N[C@@H](c4ccc5c(c4)S(=O)(=O)NCC5)C(C)C)ncnc3[nH]2)co1` registered a kinetic solubility of 372 µM (≈ 179 µg/mL). This solubility kinetic lies about 13-fold higher than the previous one. Consider `CC(C)[C@@H](Nc1ncnc2[nH]ccc12)c1ccc2c(c1)S(=O)(=O)CCO2`, for which the solubility (kinetic) is 372 µM (≈ 139 µg/mL). For `CC(C)[C@@H](Nc1ncnc2[nH]ccc12)c1ccc2c(c1)NC(=O)CO2`, the solubility (kinetic) turned out to be 389 µM (≈ 131 µg/mL) and the “Solubility (mean)” value turned out to be 374 µM (≈ 126 µg/mL). `COc1ccc([C@@H](Cc2nnn[nH]2)NC(=O)c2ncnc3[nH]ccc23)cc1` came in with a solubility (kinetic) of 395 µM (≈ 144 µg/mL). `CCNC(=O)c1cc2c(N[C@@H](c3ccc4c(c3)S(=O)(=O)NCC4)C(C)C)ncnc2[nH]1` registered a solubility (kinetic) of 344 µM (≈ 152 µg/mL). The solubility kinetic values of the last two compounds are within 1.5-fold of each other. Same read-out and setting: the result for `CC(C)[C@H](Nc1ncnc2[nH]c(-c3cnn(C)c3)cc12)c1ccc2c(c1)S(=O)(=O)CCC2` reads 111 µM (≈ 50 µg/mL). For `CNC(=O)Cn1cc(-c2cc3c(N[C@@H](c4ccc5c(c4)S(=O)(=O)CCC5)C(C)C)ncnc3[nH]2)cn1`, the kinetic solubility was 306 µM (≈ 155 µg/mL) and the “Solubility (mean)” value came to 294 µM (≈ 149 µg/mL).

Take `CC(C)[C@@H](Nc1ncnc2[nH]c(-c3cnn(C)c3C#N)cc12)c1ccc2c(n1)OCCO2`: the solubility (kinetic) was found to be 89 µM (≈ 38.3 µg/mL); the “Solubility (mean)” value was 60 µM and 50 µM. Compound `CC(C)[C@H](Nc1ncnc2[nH]c(-c3cnn(C)c3C#N)cc12)c1ccc2c(n1)OCCO2` came in with a kinetic solubility of 53 µM (≈ 22.8 µg/mL). For `CC(C)[C@@H](Nc1ncnc2[nH]c(-c3cnn(C)c3C#N)cc12)c1ccc2c(c1)OCCO2`, the solubility (kinetic) amounted to 17 µM (≈ 7.3 µg/mL) and the “Solubility (mean)” value turned out to be 20 µM (≈ 8.59 µg/mL). Regarding `CC(C)[C@H](Nc1ncnc2[nH]ccc12)c1ccc2c(c1)S(=O)(=O)CCC2`, the kinetic solubility came to 374 µM (≈ 139 µg/mL).

In the case of `CC(C)[C@@H](Nc1ncnc2[nH]cc(C(=O)NC3CC3)c12)c1ccc2c(c1)S(=O)(=O)CCC2`, the solubility (kinetic) turned out to be 257 µM (≈ 117 µg/mL) and the “Solubility (mean)” value was 216 µM (≈ 98 µg/mL). As to `CC(C)[C@@H](Nc1ncnc2[nH]c(-c3ccc4nnn(C)c4c3)cc12)c1ccc2c(c1)S(=O)(=O)CCC2`, the solubility (kinetic) came out at 6 µM (≈ 3.01 µg/mL). `CC(C)[C@@H](Nc1ncnc2[nH]c(-c3cnn(C)c3)cc12)c1ccc2c(c1)S(=O)(=O)CCC2`: the solubility (kinetic) is 94 µM (≈ 42.4 µg/mL) and the “Solubility (mean)” value came to 111 µM (≈ 50 µg/mL). For `CC(C)[C@@H](Nc1ncnc2[nH]c(-c3cnn(CC(N)=O)c3)cc12)c1ccc2c(n1)OCCO2` the same measures were 385 µM (≈ 173 µg/mL) and 395 µM (≈ 177 µg/mL). `CC(C)[C@@H](Nc1ncnc2[nH]c(-c3cnn(CCC(N)=O)c3)cc12)c1ccc2c(c1)OCCO2` gave a kinetic solubility of 236 µM (≈ 109 µg/mL).

`CNC(=O)Cn1cc(-c2cc3c(N[C@H](c4ccc5c(c4)S(=O)(=O)CCC5)C(C)C)ncnc3[nH]2)cn1` displayed a solubility (kinetic) of 323 µM (≈ 164 µg/mL). Same read-out and setting: the result for `CC(C)[C@@H](Nc1ncnc2[nH]c(-c3ccc4cncn4c3)cc12)c1ccc2c(c1)S(=O)(=O)CCC2` reads 14 µM (≈ 6.81 µg/mL). The compound `CC(C)[C@@H](Nc1ncnc2[nH]c(-c3cncc(S(C)(=O)=O)c3)cc12)c1ccc2c(c1)S(=O)(=O)CCC2` had a solubility (kinetic) of 31 µM (≈ 16.3 µg/mL).

Take `CC(C)[C@@H](Nc1ncnc2[nH]c(-c3cnn(CC(N)=O)c3)cc12)c1ccc2c(c1)S(=O)(=O)CCC2`: the solubility (kinetic) stood at 341 µM (≈ 168 µg/mL) and the “Solubility (mean)” value was found to be 335 µM (≈ 165 µg/mL). For `CNC(=O)c1cc2c(N[C@@H](c3ccc4c(c3)S(=O)(=O)CCC4)C(C)C)ncnc2[nH]1` the same measures were 369 µM (≈ 158 µg/mL) and 397 µM (≈ 170 µg/mL). For `CC(C)[C@@H](Nc1ncnc2[nH]c(-c3cnn(CC(=O)N(C)C)c3)cc12)c1ccc2c(c1)OCCO2` the same measures were 210 µM (≈ 99.9 µg/mL) and 205 µM (≈ 97.5 µg/mL). For `CC(C)[C@@H](Nc1ncnc2[nH]c(-c3cnn(C)c3C#N)cc12)c1ccc2c(n1)NC(=O)CO2` the same measures were 29 µM (≈ 12.9 µg/mL) and 28 µM (≈ 12.4 µg/mL). On to `CC(C)[C@@H](Nc1ncnc2[nH]c(-c3cnn(C)c3C#N)cc12)c1ccc2c(c1)S(=O)(=O)CCC2`, for which the kinetic solubility came to 34 µM (≈ 16.2 µg/mL) and the “Solubility (mean)” value came to 26 µM (≈ 12.4 µg/mL). In the case of `CNC(=O)c1c[nH]c2ncnc(N[C@H](c3ccc4c(c3)S(=O)(=O)CCC4)C(C)C)c12`, the solubility (kinetic) is 336 µM (≈ 144 µg/mL).

`Cn1ncc(-c2cc3c(N[C@@H](c4ccc5c(c4)OCCO5)C(C)(C)C)ncnc3[nH]2)c1C#N` registered a solubility (kinetic) of 25 µM (≈ 11.1 µg/mL).

Take `CC(C)[C@@H](Nc1ncnc2[nH]c(-c3cnn(CC(N)=O)c3)cc12)c1ccc2c(c1)OCCO2`: the kinetic solubility came to 345 µM (≈ 154 µg/mL) and the “Solubility (mean)” value amounted to 332 µM (≈ 149 µg/mL). `CNC(=O)Cn1cc(-c2cc3c(N[C@@H](c4ccc5c(c4)OCCO5)C(C)C)ncnc3[nH]2)cn1` returned a kinetic solubility of 289 µM (≈ 133 µg/mL). `C[C@@H](C(=O)O)[C@@H](NC(=O)c1ncnc2[nH]ccc12)c1ccc(Br)cc1`: the solubility (kinetic) was 386 µM (≈ 156 µg/mL). As for `CC(C)(C)[C@@H](Nc1ncnc2[nH]c(-c3cnn(CC(N)=O)c3)cc12)c1ccc2c(c1)OCCO2`, the kinetic solubility amounted to 195 µM (≈ 90 µg/mL) and the “Solubility (mean)” value is 104 µM (≈ 48 µg/mL). Regarding `CNC(=O)c1c[nH]c2ncnc(N[C@@H](c3ccc4c(c3)OCCO4)C(C)C)c12`, the kinetic solubility amounted to 319 µM (≈ 122 µg/mL). Turning to `CNC(=O)c1c[nH]c2ncnc(N[C@@H](c3ccc4c(c3)S(=O)(=O)CCC4)C(C)C)c12`, the kinetic solubility came out at 390 µM (≈ 167 µg/mL) and the “Solubility (mean)” value worked out at 204 µM (≈ 87.2 µg/mL). `CC(C)[C@H](CO)Nc1ncnc2[nH]ccc12` returned a solubility (kinetic) of no less than 400 µM. Same read-out and setting: for `CC(C)[C@H](Nc1ncnc2[nH]c(-c3cnn(CC(N)=O)c3)cc12)c1ccc2c(c1)OCCO2` the value was 280 µM (≈ 125 µg/mL); for `CC(C)[C@@H](Nc1ncnc2[nH]cc(C(N)=O)c12)c1ccc2c(c1)OCCO2`, 375 µM (≈ 138 µg/mL); for `CNC(=O)c1c[nH]c2ncnc(N[C@@H](c3ccc4c(c3)NC(=O)CO4)C(C)C)c12`, 28 µM (≈ 11 µg/mL).

Compound `O=C(Nc1ccccc1)Nc1ccc(C(=O)NC2c3cccc(O)c3CC2C(=O)O)cc1` (stereo unspecified) came in with a solubility (kinetic) of 319 µM (≈ 138 µg/mL). Still for that read-out and setting: for `CC(C)(C)[C@H](Nc1ncnc2[nH]c(-c3cnn(CC(N)=O)c3)cc12)c1ccc2c(n1)OCCO2` the value was 372 µM (≈ 172 µg/mL); for `CC(C)[C@H](Nc1ncnc2[nH]c(-c3cnn(CC(N)=O)c3)cc12)c1ccc2c(n1)OCCO2`, 377 µM (≈ 169 µg/mL); for `COCCNC(=O)c1c[nH]c2ncnc(N[C@@H](c3ccc4c(c3)S(=O)(=O)CCC4)C(C)C)c12`, 378 µM (≈ 178 µg/mL). `CC(C)[C@@H](Nc1ncnc(N)c1Cl)c1ccc2c(c1)S(=O)(=O)CCC2` showed a solubility (kinetic) of no less than 400 µM. Take `CC(C)[C@@H](Nc1ncnc2[nH]c(-c3cnn(CC(N)=O)c3)cc12)c1ccc2c(c1)NC(=O)CO2`: the solubility (kinetic) is 25 µM (≈ 11.5 µg/mL). In other words, the double-digit micromolar range. Take `CC(C)[C@H](Nc1ncnc2[nH]cc(C(=O)NC3CC3)c12)c1ccc2c(c1)S(=O)(=O)CCC2`: the solubility (kinetic) was found to be 19 µM (≈ 8.62 µg/mL). On to `CNC(=O)c1cc2c(N[C@@H](c3ccc4c(c3)NC(=O)CO4)C(C)C)ncnc2[nH]1`, for which the solubility (kinetic) was 372 µM (≈ 147 µg/mL) and the “Solubility (mean)” value is 380 µM (≈ 150 µg/mL). As for `CC(C)[C@H](Nc1ncnc2[nH]ccc12)c1ccc2c(c1)NC(=O)CO2`, the solubility (kinetic) was 371 µM (≈ 125 µg/mL). Same read-out and setting: for `COc1ccc([C@@H](NC(=O)c2[nH]cnc3nccc2-3)C(C)c2nnn[nH]2)cc1` (stereo partly specified) the value was no less than 400 µM. For the compound `COc1ccc([C@@H](CC(=O)O)NC(=O)c2ncnc3[nH]ccc23)cc1`, the kinetic solubility is no less than 400 µM. Same read-out and setting: the result for `CC(C)[C@H](Nc1ncnc2[nH]c(C(=O)N[C@@H]3CCN(C)C3)cc12)c1ccc2c(c1)S(=O)(=O)CCC2` reads 366 µM (≈ 182 µg/mL); that for `COc1ccc2c(c1)CCN(c1ncnc3[nH]ccc13)[C@H]2C(C)C`, 14 µM (≈ 4.51 µg/mL).

For `CC(C)[C@H](Nc1ncnc2[nH]c(-c3cnn(C)c3C#N)cc12)c1ccc2c(c1)OCCO2`, the kinetic solubility was determined as 15 µM (≈ 6.44 µg/mL).

For the compound `O=C(Nc1cccc2c(C(=O)N[C@@H]3c4ccccc4C[C@@H]3C(=O)O)c[nH]c12)NC1CC1`, the kinetic solubility is no less than 400 µM. On the same count and under the same terms, for `CCNC(=O)c1cc2c(N[C@H](c3ccc4c(c3)S(=O)(=O)CCC4)C(C)C)ncnc2[nH]1` the value was 337 µM (≈ 149 µg/mL).

One may read the kinetic solubility as solubility judged after dilution from a stock solution rather than from solid.
